From patent US20100069345A1, “Lanthanide-porphyrin complexes as anti-tumor agents” (priority 2005, published 2010)

Key:
[1] = tested on: human cervical epitheloid carcinoma cells (HeLa); experiment: MTT cell viability assay, HeLa; assay type: cell-based
Excerpt: (§1) Human cervical epitheloid carcinoma cells (HeLa), human hepatocellular carcinoma cells (HepG2 and Hep3B), human breast cancer cells (MCF-7), human coloadenocarcinoma cells (HCT-8), and normal human lung fibroblast cells (CCD-19Lu) were purchased from American Type Culture Collection (ATCC) Rockville, Md., USA. The human hepatocellular cancinoma cells QGY-7703, and the multi-drug resistant cell line QGY-TR50 derived from QGY-7703, were generously provided by Prof. Yong Xie (The Hong Kong University of Science and Technology, Hong Kong PRC). QGY-TR50 cells were isolated and cultured as described (J. Zhou, S. C. Cheng, D. Luo, Y. Xie Biochem. Biophys. Res. Commun. 2001, 280, 1237-1242). Human nasopharyngeal carcinoma cells (SUNE1 and its cisplatin-resistant variant—CNE2) were derived from poorly differentiated NPC in Chinese patients and were generously provided by Dr. S. W. Tsao (The University of Hong Kong, Hong Kong PRC). Cell culture flasks and 96-well microtitre plates were from Nalge Nunc Int. Culture medium, other medium constituents and phosphate buffer saline (PBS) were obtained by Gibco BRL Rockville, Md., USA. Cell Proliferation kit I (MTT) was purchased from Roche. Mannheim, Germany.

[2] = tested on: human nasopharyngeal carcinoma cells (SUNE1); experiment: MTT cell viability assay, SUNE1; assay type: cell-based
Excerpt: as §1

[3] = tested on: cisplatin-resistant variant (CNE2) of human nasopharyngeal carcinoma cells; experiment: MTT cell viability assay, CNE2; assay type: cell-based
Excerpt: as §1

[4] = tested on: normal human lung fibroblast cells (CCD-19Lu); experiment: MTT cell viability assay, CCD-19Lu; assay type: cell-based
Excerpt: as §1

[5] = tested on: human hepatocellular carcinoma cells (Hep3B); experiment: MTT cell viability assay, Hep3B; assay type: cell-based; details: 37° C., 48 h, mean ± SD
Excerpt: as §1

[6] = Stability by UV-visible in presence of reduced glutathione; assay type: physicochemical; details: 6 mM GSH in DMSO/Tris buffer solution (1:9)
Protocol: Moreover, concomitant band broadening in spectrum of complex 1 was observed after 24 h. No significant spectral shift and formation of new absorption band were observed. […] Comparing with the spectra of complex 1, the decrease in Soret band intensity of complex 2b is less significant. The intensities are only found to decrease in 2% and 19% after 2 h and 24 h, respectively. Also, there is no significant spectral shift and formation of new absorption band were observed (FIG. 8).

HeLa cells [7] = experiment: FACS cell cycle analysis with PI staining; assay type: cell-based, human; details: 2 μM
Protocol: Instrumentation. All absorption spectra were recorded on a Perkin-Elmer Lambda 900 and Perkin-Elmer Fusion α-FP. Positive ion FAB mass spectra were recorded on a Finnigan MAT95 mass spectrometer. ^1HNMR spectra were recorded on Brucker DPX-300 or DPX-400 NMR spectrometers. Flow cytometric analysis was performed with a Coulter EPICS flow cytometer (Coulter, Miami, Fla.) equipped with 480 long, 525 band and 625 long pass mirrors. Samples were excited by 15 mW air-cool argon convergent laser at 488 nm. Fluorescence signal were manipulated with Coulter Elite 4.0 software (Coulter) and were analyzed by Winlist 1.04 and Modfit 5011 software (verity Software House, Topsham, Me.).
Fluorescence-Activated Cell Sortings (FACS). Cells in different phases of the cell cycle can be differentiated by the DNA content, which can be distinguished by FACS after staining the cells with propidium iodide (PI). Resting cells are said to be in the G0 phase of the cell cycle. Once the cell is instructed to divide, it enters the active phase of the cell cycle, which is consisted of G1, S, G2 and M phase. Treatment of cancer cells with cytotoxic agents may induce cell cycle arrest at a particular phase of the cell cycle. Flow cytometry with PI staining was performed in HeLa cells treated with complex 1 (2 μM) for 0, 6 h, 12 h, 18 h, 24 h, 36 h and 48 h. […]

HeLa cells [8] = experiment: Transmission electron microscopy of autophagic cells; assay type: cell-based, human; details: 1 μM, 2 h
Protocol: Transmission Electron Microscopy. HeLa cells (12×10^4) were seeded on 60 mm plate. Cells were treated with 1 (1 μM) for 2 h, respectively. Cells were then trypsinized, washed twice with PBS and fixed with ice-cold glutaraldehyde (2.5% in 0.1 M cacodylate buffer, pH 7.4) for 30 min. After primary fixation, cells were washed with cacodylate buffer, post-fixed with 1% osmium tetraoxide for 30 min. Osmium tetraoxide was removed and the cell pellet was washed with cacodylate buffer. Pre-warmed gelatin was added to the cell pellet and immediately centrifuged at 2500 rpm for 5 min. The gelatin was dehydrated by immersing in 30% EtOH, 50% EtOH, 70% EtOH once, and in 90% EtOH twice for 5 min and finally in absolutely EtOH for 10 min for three times. The dehydrated sample was washed with propylene oxide twice for 5 min and then immersed in propylene oxide:resin (1:1) for overnight. The sample was immersed in pure resin for 30 min before embedded in Polybed. Specimens were examined using 208S Philips transmission electron microscopy.
Cells treated with 1 were subjected to transmission electron microscopic analysis.

[9] = IC50 of cisplatin divided by IC50 of complex

[Yb2(OEP)2](μ-OH)2 [Complex 1]
IC50 ratio cisplatin/complex, HeLa [1, 9]: 30.2 | IC50 ([1]; MTT, 37° C., 48 h, mean ± SD of three experiments): 470 ± 300 nM | IC50 ratio cisplatin/complex, SUNE1 [2, 9]: 4.8 | IC50 ([2]; MTT, 37° C., 48 h, mean ± SD): 2450 nM | IC50 ratio cisplatin/complex, CNE2 [3, 9]: 17.2 | IC50 ([3]; MTT, 37° C., 48 h, mean ± SD): 3350 nM | IC50 ratio cisplatin/complex, CCD-19Lu [4, 9]: 16.8 | IC50 ([4]; MTT, 37° C., 48 h, mean ± SD): 5400 ± 6800 nM | IC50 [5]: 780 ± 60 nM | decrease in Soret band intensity, reduced glutathione, 2 h ([6]; 2 h): 7% | decrease in Soret band intensity, reduced glutathione, 24 h ([6]; 24 h): 52% | change in proportion of cells in G0-G1, G2-M and S phase (HeLa cells [7]; 0-48 h, PI staining): no observable change | cells showing DNA fragmentation (HeLa cells [7]; 48 h): more than 60% | autophagic vacuoles by transmission electron microscopy (HeLa cells [8]): vesicular structures reminiscence of autophagic vacuoles
